Holding throughout (assay type): cell-based
Data set [1] has as its system methicillin-resistant Staphylococcus aureus MRSA-2 (clinical isolate). Description: MIC broth microdilution, MRSA-2. The note with it: Table 1A. How it is done: (§1) The minimum inhibitory concentration (MIC) for each tested compound was determined by the broth microdilution method as recommended by the Clinical and Laboratory Standards Institute (CLSI). In a 96-well plate, eleven two-fold serial dilutions of each compound were made in a final volume of 100 μL Luria Broth. Each well was inoculated with ˜10^5 bacterial cells at the initial time of incubation, prepared from a fresh log phase culture (OD600 of 0.5 to 1.0 depending on bacterial strain). The MIC was defined as the lowest concentration of compound that prevented bacterial growth after incubating 16 to 18 hours at 37° C. (MIC values were supported by spectrophotometric readings at OD600). DMSO served as our vehicle and negative control in each microdilution MIC assay. DMSO was serially diluted with a top concentration of 1% v/v.
as §1, with “for each compound was” for “for each tested compound was”, “Standards Institute (CLSI).^6 In a” for “Standards Institute (CLSI). In a”, “concentration of test compound that” for “concentration of compound that”, “37° C. The concentration range tested for each compound during this study was 0.10 to 100 μM. DMSO served” for “37° C. (MIC values were supported by spectrophotometric readings at OD600). DMSO served”, “1% v/v. All MIC values were obtained from a minimum of three independent experiments.” for “1% v/v.”

The test system of data set [2] is methicillin-resistant Staphylococcus epidermidis (MRSE strain ATCC 35984). Kind of data set: MIC broth microdilution, MRSE 35984. Conditions: Table 1A. How it is done:
as §1
as §1, with “for each compound was” for “for each tested compound was”, “Standards Institute (CLSI).^6 In a” for “Standards Institute (CLSI). In a”, “concentration of test compound that” for “concentration of compound that”, “37° C. The concentration range tested for each compound during this study was 0.10 to 100 μM. DMSO served” for “37° C. (MIC values were supported by spectrophotometric readings at OD600). DMSO served”, “1% v/v. All MIC values were obtained from a minimum of three independent experiments.” for “1% v/v.”
For orientation: Dilution methods test growth across graded concentrations, often in twofold steps.

For data set [3], the system named is vancomycin-resistant Enterococcus faecium (VRE strain ATCC 700221). Kind of data set: MIC broth microdilution, VRE 700221. The note with it: Table 1A. How it is done:
as §1
as §1, with “for each compound was” for “for each tested compound was”, “Standards Institute (CLSI).^6 In a” for “Standards Institute (CLSI). In a”, “concentration of test compound that” for “concentration of compound that”, “37° C. The concentration range tested for each compound during this study was 0.10 to 100 μM. DMSO served” for “37° C. (MIC values were supported by spectrophotometric readings at OD600). DMSO served”, “1% v/v. All MIC values were obtained from a minimum of three independent experiments.” for “1% v/v.”

Data set [4] concerns Acinetobacter baumannii (ATCC 1794). Description: MIC broth microdilution, A. baumannii 1794. The note with it: Table 1A; in µM. The method, then:
as §1
as §1, with “for each compound was” for “for each tested compound was”, “Standards Institute (CLSI).^6 In a” for “Standards Institute (CLSI). In a”, “concentration of test compound that” for “concentration of compound that”, “37° C. The concentration range tested for each compound during this study was 0.10 to 100 μM. DMSO served” for “37° C. (MIC values were supported by spectrophotometric readings at OD600). DMSO served”, “1% v/v. All MIC values were obtained from a minimum of three independent experiments.” for “1% v/v.”

Data set [5] relates to Pseudomonas aeruginosa (PAO1). Kind of data set: MIC broth microdilution, PAO1. Conditions: Table 1A. How it is done:
as §1
as §1, with “for each compound was” for “for each tested compound was”, “Standards Institute (CLSI).^6 In a” for “Standards Institute (CLSI). In a”, “concentration of test compound that” for “concentration of compound that”, “37° C. The concentration range tested for each compound during this study was 0.10 to 100 μM. DMSO served” for “37° C. (MIC values were supported by spectrophotometric readings at OD600). DMSO served”, “1% v/v. All MIC values were obtained from a minimum of three independent experiments.” for “1% v/v.”

The subject of data set [6] is human red blood cells (hRBC). Kind of data set: Hemolysis of red blood cells. How it is done:
The washing was repeated three times with the buffer. In a 96-well plate, test compounds were added to the buffer from DMSO stocks. […] The plate was then incubated for 1 hour at 37° C. After incubation, the plate was centrifuged for 5 minutes at 3,500 rpm. Then 80 μL of the supernatant was transferred to another 96-well plate and the optical density (OD) was read at 405 nm. DMSO served as our negative control (0% hemolysis) while Triton X served as our positive control (100% hemolysis). […] All reported data correspond to three independent experiments. Ten-point dose-response curves were generated in 96-well plates to determine 50% hemolysis (HC50 values) of red blood cells.
The washing was repeated three times with the buffer. In 96-well plate, the test compounds were added to the buffer. Then 50 μL of 2% of hRBCs in the buffer were added to the test plate to make the final concentrations ranging from 0.2 to 200 μM of each test compound. The plate was then incubated for 1 hour at 37° C. After incubation, the plate was centrifuged for 5 minutes at 3500 rpm and then 80 μL of the supernatant was transferred to another 96-well plate and the Optical Density (OD) was read at 405 nm. DMSO served as our negative control (0% haemolysis) and Triton X served as our positive control (100% haemolysis). The HC50 (concentration of test compound required to lyse red blood cells by 50%) was calculated by plotting the dose-response curve (not shown) with Graphpad Prism 6.0. All data were obtained from three independent haemolysis experiments.

Some results are limits rather than exact numbers.

As usually defined, the HC50 is the concentration that lyses half of the red blood cells. A higher HC50 goes with weaker haemolysis.

In data set [1], `CCCCCCCCCCCCCCCCn1cc[n+](Cc2ccccc2C[n+]2ccn(CCCCCCCCCCCCCCCC)c2C)c1C` [AB-3-35] showed an MIC MRSA-2 above 100 µM. The molecule also registered an MIC S. epidermidis MRSE 35984 in data set [2] above 100 µM. The same molecule gave an MIC E. faecium VRE 700221 in data set [3] above 100 µM. Besides, the “MIC A. baumannii 1794” value in data set [4] is above 100. In addition, the MIC PAO1 in data set [5] is above 100 µM. The 50% haemolytic concentration (HC50) in data set [6] worked out at 34.5 µM.

As to `CCCCCCCCCCCCCCCCn1cc[n+](-c2ccc(C(F)(F)F)cc2)c1C.[Br-]` [Compound 2], in data set [6], the “RBC HC50” value was 13.4 µM and the hemolytic activity entry was “potent hemolytic activities”.

These data come from US11419335B2, “N-arylated analogues and uses thereof” (University of Florida Research Foundation, Incorporated, priority 2016, dated 2022).
